Each block holds one compound with its values, some of them ahead of it.
Experiment: solvent given as SMILES
[1] = in O=P(c1ccccc1)(c1ccccc1)c1ccccc1Oc1ccccc1P(=O)(c1ccccc1)c1ccccc1

Compound: Cc1cc(-c2ccc(-n3c4ccccc4c4ccccc43)cc2)nc(-c2ccc(-n3c4ccccc4c4ccccc43)cc2)n1
emission maximum (in C1CCOC1): 423 nm
emission maximum (in CN(C)C=O): 461 nm
emission maximum (in Cc1ccccc1): 398 nm
emission maximum (in ClC(Cl)Cl): 426 nm

Compound: CCCCC1(CCCC)c2cc(-c3ccc(C=C4C(=O)c5ccccc5C4=O)cc3)ccc2-c2ccc(-c3ccc(C=C4C(=O)c5ccccc5C4=O)cc3)cc21
emission maximum (in C1CCOC1): 532 nm
emission maximum (in CC(C)=O): 564 nm
emission maximum (in CCCCCC): 465 nm
emission maximum (in CS(C)=O): 596 nm
emission maximum (in Cc1ccccc1): 492 nm
emission maximum (in ClC(Cl)Cl): 527 nm

Compound: c1ccc(N(c2ccccc2)c2ccc(-c3ccncn3)cc2)cc1
emission maximum (in ClCCl): 482 nm

Compound: CCCCN1C(=O)c2c(Br)c(Br)c3c4c(Br)c(Br)c5c6c(c(Br)c(Br)c(c7c(Br)c(Br)c(c2c37)C1=O)c64)C(=O)N(CCCC)C5=O
emission maximum (in ClC(Cl)Cl): 600 nm

Compound: c1ccc2c(c1)CCc1ccccc1N2c1c2ccccc2cc2ccccc12
emission maximum (in Cc1ccccc1): 507 nm

Compound: O=C(c1ccc(N2c3ccccc3Oc3ccccc32)cc1)c1ccc(N2c3ccccc3Oc3ccccc32)cc1
emission maximum (in Cc1ccccc1): 509 nm
emission maximum (in c1cc(-n2c3ccccc3c3ccccc32)cc(-n2c3ccccc3c3ccccc32)c1): 538 nm

Compound: CCN(CC)c1ccc(-c2ccc(-c3nc(N4CCOCC4)c4ccccc4n3)s2)cc1
emission maximum (in CC#N): 544 nm
emission maximum (in Cc1ccccc1): 476 nm

Compound: CCCC1=Cc2nc1ccc1[nH]c(cc1CCOC)c1nc(ccc3[nH]c2cc3CCC)C(CCOC)=C1
emission maximum (in Cc1ccccc1): 642 nm

Compound: CCCCCCCCCCn1c(-c2cc(-c3nc4ccc(C)cc4n3CCCCCCCCCC)cc(-c3nc4ccc(C)cc4n3CCCCCCCCCC)c2)nc2ccc(C)cc21
emission maximum (in C1CCOC1): 379.1 nm

Compound: CCOC(=O)CN(CC(=O)OCC)c1ccc(-c2cc(-c3ccncc3)nc(-c3ccncc3)c2)cc1
emission maximum (in CC#N): 482 nm
emission maximum (in CCOC(C)=O): 438 nm
emission maximum (in CN(C)C=O): 490 nm
emission maximum (in CS(C)=O): 496 nm
emission maximum (in c1ccccc1): 412 nm

Compound: COc1ccc(C2=CC3=C(c4c(C)cc(C)cc4C)c4cc(-c5ccc(OC)cc5)c(-c5ccc(OC)cc5)n4[B-](F)(F)[N+]3=C2c2ccc(OC)cc2)cc1
emission maximum (in C1CCCCC1): 666 nm
emission maximum (in C1CCOC1): 674 nm
emission maximum (in CC#N): 673 nm
emission maximum (in Cc1ccccc1): 677 nm
emission maximum (in ClCCl): 672 nm

Compound: COC(=O)c1ccc(/C=C2\C=C(c3ccccc3)OC2=O)cc1
emission maximum (in C1COCCO1): 495 nm

Compound: CC1(C)c2ccccc2-c2cc3c(cc21)c1ccccc1n3-c1cccnc1
emission maximum (in ClCCl): 373 nm

Compound: N#C/C(=C\c1ccc(-c2ccncc2)cc1)c1ccc(-c2ccncc2)cc1
emission maximum (in ClCCl): 460 nm

Compound: c1ccc(C2=C(c3ccccc3)c3cccc4c3c(cc3nc5cc(-c6ccccc6)c(-c6ccccc6)cc5nc34)O2)cc1
emission maximum (in ClCCl): 559 nm

Compound: c1ccc(-n2c3ccccc3c3c2c2ccccc2n3-c2ccccc2)cc1
emission maximum (in Cc1ccccc1): 376 nm

Compound: CCOC(=O)COc1ccccc1C(c1c(C)[nH]c2ccccc12)c1c(C)[nH]c2ccccc12
emission maximum (in C1CCCCC1): 328 nm
emission maximum (in CC#N): 348 nm
emission maximum (in CO): 349 nm
emission maximum (in O): 350 nm

Compound: c1ccc(-c2nc(-c3ccccc3)nc(-c3ccc(-n4c5ccccc5c5c6oc7ccccc7c6ccc54)cc3)n2)cc1
emission maximum (in C1CCCCC1): 393.5 nm
emission maximum (in C1CCOC1): 473.68 nm
emission maximum (in Cc1ccccc1): 430.34 nm
emission maximum [1]: 429.14 nm

Compound: CC(C)(C)c1ccc2c(c1)c1cc(C(C)(C)C)ccc1n2-c1ccc(-c2nc(-c3ccc(-n4c5ccc(C(C)(C)C)cc5c5cc(C(C)(C)C)ccc54)cc3)nc(-c3ccc(P(=O)(c4ccccc4)c4ccccc4)cc3)n2)cc1
emission maximum (in C1CCOC1): 501.73 nm
emission maximum (in CC#N): 543.52 nm
emission maximum (in CC(C)=O): 525.92 nm
emission maximum (in CN(C)C=O): 574.19 nm
emission maximum (in Cc1ccccc1): 474.19 nm
emission maximum (in ClCCl): 526.57 nm
emission maximum [1]: 492 nm

Compound: O=C1c2ccccc2-c2cnccc21
emission maximum (in CC#N): 516.76 nm
emission maximum (in CCCCCC): 464.17 nm

Compound: N#Cc1ccccc1N1c2ccccc2C(c2ccccc2)(c2ccccc2)c2ccccc21
emission maximum (in Cc1ccccc1): 441 nm

Compound: COC1(OC)C2(Cl)c3nc4cc(-c5cccs5)ccc4nc3C1(Cl)C1C[C@H]3[C@@H](CC12)C1(Cl)c2nc4ccc(-c5cccs5)cc4nc2C3(Cl)C1(OC)OC (some centres undefined)
emission maximum (in CC#N): 461 nm
emission maximum (in CCCCCC): 412 nm
emission maximum (in CCOC(C)=O): 439 nm
emission maximum (in CO): 491 nm
emission maximum (in Cc1ccccc1): 427 nm
emission maximum (in ClC(Cl)Cl): 441 nm
emission maximum (in ClCCl): 445 nm

Compound: N#Cc1cc(-n2c3ccccc3c3ccccc32)c(-n2c3ccccc3c3ccccc32)cc1C#N
emission maximum (in C1CCOC1): 501 nm
emission maximum (in Cc1ccccc1): 473 nm
emission maximum (in c1ccc2c(c1)c1ccccc1n2-c1ccc(-c2ccc(-n3c4ccccc4c4ccccc43)cc2)cc1): 474 nm

Compound: CN(C)c1ccc(-c2nc(-c3ccccc3)c3ccccn23)cc1
emission maximum (in C1CCCCC1): 482 nm
emission maximum (in CC#N): 509 nm
emission maximum (in CO): 500 nm
emission maximum (in ClCCl): 495 nm
emission maximum (in O): 512 nm

Compound: COC(=O)C1=C(C(=O)OC)C2(c3ccccc3-c3c(Br)cc(Br)cc32)C2(/C=C/c3ccccc3)c3cc(OC)c(OC)cc3CCN12 (centres undefined)
emission maximum (in ClCCl): 491 nm

Compound: CN(C)c1ccc2[c](c1)[Sn]([CH3])([CH3])[C]1=CC(=[N+](C)C)C=CC1=C2
emission maximum (in O): 628 nm

Compound: CC(C)[Si](C#Cc1ccc(C#Cc2c3cc4ccccc4cc3c(C#C[Si](C(C)C)(C(C)C)C(C)C)c3cc4ccccc4cc23)cc1)(C(C)C)C(C)C
emission maximum (in ClCCl): 668 nm

Compound: CC1=[N+]2C(=C(NCc3ccccc3)c3ccc(C)n3[B-]2(F)F)C=C1c1cc2n(c1)[B-](F)(F)[N+]1=CC=CC1=C2c1c(C)cc(C)cc1C
emission maximum (in C1CCCCC1): 636 nm
emission maximum (in CCOC(C)=O): 700 nm

Compound: Cc1ccc(-c2cc(-c3ccc(N(C)C)cc3)c3c(N)nc(N4CCCC4)c(C#N)c3n2)cc1
emission maximum (in CC#N): 514 nm
emission maximum (in CC(C)=O): 511 nm
emission maximum (in CC(C)O): 506 nm
emission maximum (in CO): 517 nm
emission maximum (in ClC(Cl)Cl): 496 nm
emission maximum (in ClCCl): 503 nm
emission maximum (in c1ccccc1): 500 nm

Compound: C[N+]1=C(/C=C/C=C2/N(CCC[N+](C)(C)C)c3ccccc3C2(C)C)C(C)(C)c2ccccc21
emission maximum (in CS(C)=O): 565 nm

Compound: CC(=O)OC[C@@H]1O[C@H](n2cnc3c2N=CN2Cc4c[n+](C)c(C)nc4N=C32)[C@@H](O)[C@H]1O
emission maximum (in CC#N): 415 nm
emission maximum (in CCO): 416 nm
emission maximum (in O): 409 nm

Compound: Cc1c(COC(=O)c2ccc(I)cc2)n2c(OCC(=O)c3ccc(I)cc3)c(C)c(=O)n2c1=O
emission maximum (in CCO): 458 nm

Compound: c1ccc2c(c1)c1ccccc1n2-c1ccc(-c2nnc(-c3ccc(-n4c5ccccc5c5ccccc54)cc3)o2)cc1
emission maximum (in Cc1ccccc1): 386 nm
emission maximum [1]: 414 nm

Compound: CC(C)(C)NC(=O)c1ccc(C(=O)NC(C)(C)C)c2c1c1c3ccccc3c3ccccc3c1c1c3ccccc3c3ccccc3c21
emission maximum (in ClCCl): 476 nm

Compound: N#Cc1ccc(-c2pc3ccccc3s2)cc1 (centres undefined)
emission maximum (in CC#N): 433 nm

Compound: O=c1cc(C(F)(F)F)c2cc3c4c(c2o1)CCCN4CCC3
emission maximum (in C1CCCCC1): 455 nm
emission maximum (in CC#N): 521 nm
emission maximum (in CCO): 531 nm
emission maximum (in CCOC(C)=O): 501 nm
emission maximum (in OCC(O)CO): 546 nm

Continued, values first:

emission maximum (in ClC(Cl)Cl): 383 nm
Compound: CCC[Si](CCC)(CCC)c1cc2ccc3cccc4ccc(c1C(=O)NC(C)(C)C)c2c34

emission maximum (in ClCCl): 495 nm
Compound: CCOC(=O)C1=C(C(=O)OCC)C2(c3ccccc3-c3c(Br)cc(Br)cc32)C2(/C=C/c3ccc(Cl)cc3)c3cc(OC)c(OC)cc3CCN12 (centres undefined)

emission maximum (in C1CCOC1): 423 nm
Compound: Cc1ccc(/C=C/C(F)(F)F)c(N)c1

emission maximum (in ClC(Cl)Cl): 612 nm
Compound: COc1ccc(-c2oc3cccc4c5c(-c6ccc(OC)cc6)/c(=N/S(=O)(=O)C(F)(F)F)oc6cccc(c2c34)c65)cc1

emission maximum (in ClCCl): 376 nm
Compound: CC(C)(C)c1ccc2c3ccccc3c3cncnc3c2c1

emission maximum (in ClCCl): 459 nm
Compound: O=S1(=O)C2=C(c3ccccc31)C1(c3ccccc32)c2ccccc2-c2sc3ccccc3c21 (centres undefined)

emission maximum (in ClCCl): 645 nm
Compound: CN(C)c1ccc(C2=C3C=C(c4ccc(C=O)cc4)S[C@]34c3ccccc3[C@H]2c2ccccc24)cc1

emission maximum (in ClC(Cl)Cl): 649 nm
Compound: Cc1cc(C)c(C2=C3C=CC=[N+]3[B-]3(F)Oc4cc(O)cc5c6ccc(C)cc6c6cc2n3c6c45)c(C)c1 (centres undefined)

emission maximum (in CCCCCC): 494 nm
Compound: CC(C)[Si](C#Cc1c2ccccc2c(C#C[Si](C(C)C)(C(C)C)C(C)C)c2nc3c(nc12)Cc1ccccc1-3)(C(C)C)C(C)C

emission maximum (in C1CCOC1): 442 nm
Compound: N#Cc1c(N2CCCCC2)cc(-c2cccc3ccccc23)c2c1-c1ccccc1C2

emission maximum (in C1CCCCC1): 348 nm
emission maximum (in CC#N): 450 nm
Compound: Cc1ccc(/C=C/c2ccccc2-[n+]2noc([O-])c2C)cc1

emission maximum (in CO): 552 nm
Compound: Nc1ccc(C#Cc2ccc3ccc4ccc(C#Cc5ccc(NS(=O)(=O)c6ccc([N+](=O)[O-])cc6[N+](=O)[O-])cc5)c5ccc2c3c45)cc1

emission maximum (in ClCCl): 504 nm
Compound: Cc1ccc2nc3cc4c(cc3c(-c3ccccc3)c2c1)[Si](C)(C)O[Si]4(C)C

emission maximum (in CN(C)C=O): 429 nm
Compound: CCN(CC)c1ccc(-c2nc(Oc3ccc(-c4nc5cc([N+](=O)[O-])ccc5[nH]4)cc3)nc(Oc3ccc(-c4nc5cc([N+](=O)[O-])ccc5[nH]4)cc3)n2)cc1

emission maximum (in C1CCCCC1): 359 nm
emission maximum (in CC#N): 408 nm
Compound: CN(C)c1ccc(-c2nc3cccnc3[nH]2)cc1

emission maximum (in ClCCl): 401 nm
Compound: FC(F)(F)c1ccccc1B1c2ccccc2Nc2ccccc21

emission maximum (in CC#N): 432 nm
Compound: O=c1[nH]c(=O)c2nc3ccccc3nc2[nH]1

emission maximum (in CO): 374 nm
Compound: O=C(O)CCCc1cc2ccc3cccc4ccc(c1)c2c34

emission maximum (in c1cc(-c2cccc(-n3c4ccccc4c4ccccc43)c2)cc(-n2c3ccccc3c3ccccc32)c1): 450 nm
Compound: Cc1cc(-c2nc(-c3ccccc3)nc(-c3ccccc3)n2)ccc1-c1ccc2c(c1)C1(c3ccccc3-c3ccccc31)c1ccccc1N2c1ccccc1
